Reference: patent US9938335B2, “Glucagon and GLP-1 co-agonist compounds” (Eli Lilly and Company, priority 2015, dated 2018)
≈ marks a conversion by molar mass, not a printed value. Read-outs that look alike come from different tables or passages of the source. Marks after values point to notes of the source that are not given here.

Experiments:
hGcg-R = hGcg-R (Homo sapiens, UniProt P47871); test: hGcg-R Binding Assay (SPA radioligand competition, 293HEK membranes); settings: read-out: Ki, nM ± SEM at the hGcg-R
Sequence of hGcg-R (P47871 26-477): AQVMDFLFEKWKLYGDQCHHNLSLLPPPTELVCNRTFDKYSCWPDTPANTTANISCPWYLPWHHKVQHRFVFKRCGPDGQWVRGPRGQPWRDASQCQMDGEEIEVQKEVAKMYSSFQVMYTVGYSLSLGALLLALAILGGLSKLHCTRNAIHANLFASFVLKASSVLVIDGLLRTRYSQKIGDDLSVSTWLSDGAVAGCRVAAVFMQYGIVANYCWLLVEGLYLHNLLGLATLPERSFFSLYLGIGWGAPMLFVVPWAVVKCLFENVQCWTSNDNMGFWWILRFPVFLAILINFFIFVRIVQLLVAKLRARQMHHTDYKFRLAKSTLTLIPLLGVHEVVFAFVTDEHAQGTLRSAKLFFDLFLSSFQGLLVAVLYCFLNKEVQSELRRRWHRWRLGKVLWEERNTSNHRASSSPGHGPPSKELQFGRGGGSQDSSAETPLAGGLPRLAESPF

DIO mice (C57BL/6) [1] = test: Glycemic control in DIO mice; type: in vivo, mouse; settings: for 44 hours Glucose AUC (% of Vehicle): OGTT 44 hours post-injection; for 44 hours Glucose AUC (% of Vehicle) / 78 hours Glucose AUC (% of Vehicle): 25 nmol/kg sc; for 78 hours Glucose AUC (% of Vehicle): OGTT 78 hours post-injection; for glucose excursions post an oral glucose challenge: OGTTs at 44 and 78 hours post injection, 25 nmol/kg; for Blood glucose (mg/dL) post-injection, Mean: male DIO mice, 25 nmol/kg sc once
Method: Five to six months old male DIO mice (C57BL/6) from Taconic Biosciences are used in this study. Animals are individually housed in a temperature-controlled (24° C.) facility with a 12 hour light/dark cycle (lights on 6:00), and free access to food and water. After two weeks acclimation to the facility, the mice are randomized to treatment groups (n=7/group) based on their body weight and blood glucose. Mice are injected subcutaneously once with vehicle or compounds (25 nmol/kg). Blood glucose is monitored 2 and 8 hours post-injection and then once a day at 08:00 for 4 days. OGTTs are performed at 44 and 78 hours post the peptide injection. Statistics are analyzed using ANOVA with Dunnett's comparison by JMP 6. Significance is denoted at p≤0.05 vs vehicle.

Human Gcg-R = target: T1, Human Gcg-R (Homo sapiens, UniProt P47871); test: Functional hGcg-R assay (cAMP HTRF, HEK-293 clonal cell line); type: cell-based; settings: for EC50: cAMP, 60 minute incubation, 0.25% FBS, 0.05% BSA, geometric mean, read-out: Human Gcg-R EC50, nM ± SEM, (n)
T1 construct: expressed in transfected cells; host or cells: HEK-293 clonal cell line over-expressing the receptor
T1 sequence (P47871 26-477): as above
Method: After a 60 minute incubation at room temperature, the resulting increase in intracellular cAMP (adenosine 3′,5′-cyclic monophosphate) is quantitatively determined using the CisBio cAMP Dynamic 2 HTRF Assay Kit (62AM4PEJ). cAMP levels within the cell are detected by adding the cAMP-d2 conjugate in cell lysis buffer (20 μl) followed by the antibody anti-cAMP-Eu^3+-Cryptate, also in cell lysis buffer (20 μl).
A relative EC50 value and percent top (Emax) are derived by non-linear regression analysis using the percent maximal response vs. the concentration of peptide added, fitted to a four-parameter logistic equation (Genedata Screener®).
Means for EC50 are expressed as Geometric means±standard error of the mean (SEM) with the number of replicates (n) indicated in parenthesis. Means for Emax are expressed as the arithmetic mean±standard error. ND signifies that agonist activity was not detected.

[2] = Viscosity (Rheosense mVroc Viscometer); type: physicochemical; settings: approximately 10 mg/mL peptide in 10 mM Tris + 3 mg/mL m-cresol at pH 8.0; 25° C.; shear rate 1934 s^−1
Method: Viscosity of compounds of the present invention is measured in a Rheosense mVroc Viscometer with the following settings:
(a) Syringe size: 500 μL syringe
(b) Flow Rate: 100 μL/min flow rate
(c) Average Temperature: 25° C.
(d) Shear Rate: 1934 s^−1
Dry powder (compound) is weighed out, dissolved in water as a cloudy precipitate, and titrated to approximately pH 8.0 with 1N NaOH. The solution is sonicated and swirled by hand until peptide is in solution. Samples are sterile filtered (0.22 μm PVDF filters). Samples are then analyzed by UV-Vis to assess stock solution concentrations. Solutions are diluted to final concentration using 3× m-cresol in 10 mM Tris pH 8.0 buffer to final concentrations of approximately 10 mg/mL peptide by weight in 10 mM Tris+3 mg/mL m-cresol at pH 8.0. Samples were filtered through 0.22 μm filters immediately prior to viscosity analysis. 25 μL of sample are removed to verify concentration by RP-HPLC before and after analysis.
Water and buffer control samples are measured before and after each sample is analyzed. The instrument is washed with buffer (3×) in between analysis of each sample. The samples are loaded into individual syringes and analyzed. The first measurement is not included in the final calculation to allow for equilibration with the system. Samples are then analyzed in triplicate (n=3).
The viscosity of Compounds 1-4 was measured essentially as described in this assay.

hGLP-1-R = hGLP-1-R (Homo sapiens, UniProt P43220); test: hGLP-1R Binding Assay (SPA radioligand competition, 293HEK membranes); design: expressed in transfected cells; host or cells: 293HEK, stably transfected with plasmid phD, Hygromycin-selected; crude plasma membranes; settings: read-out: Ki, nM ± SEM at the hGLP-1-R
Sequence of hGLP-1-R (P43220 24-463): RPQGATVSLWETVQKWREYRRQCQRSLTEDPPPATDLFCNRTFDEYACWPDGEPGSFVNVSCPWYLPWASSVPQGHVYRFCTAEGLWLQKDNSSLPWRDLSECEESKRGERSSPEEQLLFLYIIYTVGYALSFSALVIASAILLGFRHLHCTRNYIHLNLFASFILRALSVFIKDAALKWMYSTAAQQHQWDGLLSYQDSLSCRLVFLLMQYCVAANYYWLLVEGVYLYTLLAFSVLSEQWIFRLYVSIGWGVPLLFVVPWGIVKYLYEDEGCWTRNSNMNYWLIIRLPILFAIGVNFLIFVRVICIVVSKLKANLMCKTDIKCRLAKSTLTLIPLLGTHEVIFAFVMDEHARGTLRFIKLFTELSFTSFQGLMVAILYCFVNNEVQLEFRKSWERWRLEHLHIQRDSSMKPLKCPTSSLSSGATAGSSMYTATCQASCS

DIO mice (C57BL/6) [3] = test: Chronic treatment in DIO mice (body weight, fat, food intake); type: in vivo, mouse
Method: The effects on food intake and body weight/fat are evaluated in DIO mice. Five to six months old DIO mice (C57BL/6) from Taconic Biosciences are used in this study. Animals are individually housed in a temperature-controlled (24° C.) facility with a 12 hour light/dark cycle (lights on 6:00), and free access to food and water. The mice are acclimated to the facility for two weeks. The day before the study start, fat mass is measured by nuclear magnetic resonance (NMR) using an Echo Medical System (Houston, Tex.) instrument. The mice are randomized to treatment groups (N=7/group) based on body weight and fat mass so each group had similar starting mean body weight and fat mass. […] SC injections are made on Day 1, 4, 7, 10, and 13. Body weight and food intake are measured right before each injection throughout the study. Percent changes in body weight are calculated as follows: […]
At the completion of the study, total fat mass is measured again by NMR. Statistics are analyzed using ANOVA with Dunnett's comparison by JMP 6. Significance is denoted at p≤0.05 vs. vehicle.

[4] = Solubility (RP-HPLC and HPLC-SEC, 1 week at 4° C.); type: physicochemical; settings: for HMW species formation by SEC-HPLC: 1 week at 4° C.; for visible precipitation or phase separation: after 1 week storage at 4° C.
Method: Solubility of compounds of the present invention is measured in an Agilent 1100 HPLC, an Agilent 1200 HPLC and a Nanodrop 2000. The following HPLC columns are used:
(a) RP-HPLC: Waters Symmetry Shield C18, 3.6 um, 4.6×100 mm
(b) HPLC-SEC: Tosoh Biosciences, TSK2000SWXL […]
All peptide concentrations are made at 10 mg/mL in the following:
(a) 10 mM Tris pH 8.0+3 mg/mL m-cresol
(b) 10 mM Tris pH 8.0+3 mg/mL m-cresol+150 mM NaCl
(c) 10 mM Tris pH 8.0+3 mg/mL m-cresol+0.02% Tween-20
5 mL of 10 mg/mL peptide dissolved in 10 mM Tris at pH 8.0 is concentrated to approximately 20 mg/mL using Amicon-ultra 3 kDa MWCO devices. The solution is filtered using Millivex 0.22 μM filters (PVDF membrane) and the final concentration is measured by the NanoDrop spectrometer. This stock solution is used to formulate to the final conditions stated above using 3× m-cresol, 10× NaCl, and 100× Tween-20 stock solutions. A 10 mg/mL PBS solution is also prepared by dissolving directly at 5 mg/mL and concentrating using Amicon-ultra 3 kDa MWCO devices.
Each solution is placed in a refrigerator at 4° C. for 1 week, with analysis by RP-HPLC to assess concentration and HPLC-SEC to assess HMW species formation. Analyses completed at T-0 week and T-1 week.
The solubility of Compounds 1-4 was measured essentially as described in this assay.

[5] = 15 nmol/kg sc every three days for 15 days
[6] = 30 nmol/kg sc every three days for 15 days
[7] = 10 mM Tris pH 8.0 + 3 mg/mL m-cresol + 0.02% Tween-20, Tris pH 8 + 3 mg/mL m-cresol + 0.02% Tween-20
[8] = 10 mM Tris pH 8.0 + 3 mg/mL m-cresol + 150 mM NaCl, Tris pH 8 + 3 mg/mL m-cresol + 150 mm NaCl
[9] = 10 mM Tris pH 8.0 + 3 mg/mL m-cresol, Tris pH 8 + 3 mg/mL m-cresol
[10] = PBS pH 7.4, pH 7.4, read-out: solubility in PBS, pH 7.4

Ki (hGcg-R)	EC50 (Human Gcg-R)	500 μL syringe Viscosity [2]	Ki (hGLP-1-R)	solubility at 1 week [4, 7]	solubility at 1 week [4, 8]	solubility at 1 week [4, 9]	Compound	44 hours Glucose AUC (% of Vehicle) (DIO mice (C57BL/6) [1])	78 hours Glucose AUC (% of Vehicle) (DIO mice (C57BL/6) [1])	glucose excursions post an oral glucose challenge (DIO mice (C57BL/6) [1])	Blood glucose (mg/dL) post-injection, Mean (DIO mice (C57BL/6) [1]; 2 hours post-injection)	Blood glucose (mg/dL) post-injection, Mean (DIO mice (C57BL/6) [1]; 8 hours post-injection)	Blood glucose (mg/dL) post-injection, Mean (DIO mice (C57BL/6) [1]; 24 hours post-injection)	Blood glucose (mg/dL) post-injection, Mean (DIO mice (C57BL/6) [1]; 48 hours post-injection)	Blood glucose (mg/dL) post-injection, Mean (DIO mice (C57BL/6) [1]; 72 hours post-injection)	Blood glucose (mg/dL) post-injection, Mean (DIO mice (C57BL/6) [1]; 96 hours post-injection)	Body Fat (% change vs. vehicle from Day 1) (DIO mice (C57BL/6) [3]; [5])	Body Weight (% change vs. vehicle from Day 1) (DIO mice (C57BL/6) [3]; [5])	Body Fat (% change vs. vehicle from Day 1) (DIO mice (C57BL/6) [3]; [6])	Body Weight (% change vs. vehicle from Day 1) (DIO mice (C57BL/6) [3]; [6])	other results
14.6 ± 4.4 nM	7.21 ± 1.06 nM	1.06 cP or mPa-s	23 ± 5.5 nM	10000 µg/mL	10000 µg/mL	10000 µg/mL	CC(C)C[C@H](NC(=O)[C@H](CC(C)C)NC(=O)[C@H](Cc1c[nH]c2ccccc12)NC(=O)[C@H](CCC(=O)O)NC(=O)[C@@H](NC(=O)[C@H](Cc1ccccc1)NC(=O)[C@H](CCC(=O)O)NC(=O)[C@H](CCCCNC(=O)COCCOCCNC(=O)COCCOCCNC(=O)CC[C@H](NC(=O)CCCCCCCCCCCCCCCCC(=O)O)C(=O)O)NC(=O)[C@H](C)NC(=O)[C@H](CCCCN)NC(=O)[C@H](CCCCN)NC(=O)[C@H](CCC(=O)O)NC(=O)[C@H](CC(=O)O)NC(=O)[C@H](CC(C)C)NC(=O)[C@H](Cc1ccc(O)cc1)NC(=O)[C@H](CCCCN)NC(=O)[C@H](CO)NC(=O)[C@H](Cc1ccc(O)cc1)NC(=O)[C@H](CC(=O)O)NC(=O)[C@H](CO)NC(=O)[C@@H](NC(=O)[C@H](Cc1ccccc1)NC(=O)[C@@H](NC(=O)CNC(=O)[C@H](CCC(N)=O)NC(=O)C(C)(C)NC(=O)[C@@H](N)Cc1c[nH]cn1)[C@@H](C)O)[C@@H](C)O)C(C)C)C(=O)N[C@@H](CCC(=O)O)C(=O)NCC(=O)NCC(=O)N1CCC[C@H]1C(=O)N[C@@H](CO)C(=O)N[C@@H](CO)C(=O)NCC(N)=O [Compound 1]	42* % of Vehicle	90 % of Vehicle	lower glucose excursions post an oral glucose challenge at 44 hour	168.5 mg/dL	79.4 mg/dL	90.6 mg/dL	101.9 mg/dL	113.4 mg/dL	150.0 mg/dL	−49* %	−19* %	−66* %	−29* %	Emax (Human Gcg-R; HEK293): 112 ± 3%; HMW species formation by SEC-HPLC [4]: No observed HMW species formation by SEC-HPLC;; solubility at 1 week [4, 10]: 10000 µg/mL (≈ 2210 µM); visible precipitation or phase separation [4]: No visible precipitation or phase separation observed after 1 week
17.7 ± 5 nM	26.5 ± 2.2 nM	1.04 cP or mPa-s	28.6 ± 4.8 nM	10000 µg/mL	10000 µg/mL	10000 µg/mL	CC(C)C[C@H](NC(=O)[C@H](CC(C)C)NC(=O)[C@H](Cc1c[nH]c2ccccc12)NC(=O)[C@H](CCC(=O)O)NC(=O)[C@@H](NC(=O)[C@H](Cc1ccccc1)NC(=O)[C@H](CCC(=O)O)NC(=O)[C@H](CCCCNC(=O)COCCOCCNC(=O)COCCOCCNC(=O)CC[C@H](NC(=O)CCCCCCCCCCCCCCCCCCC(=O)O)C(=O)O)NC(=O)[C@H](C)NC(=O)[C@H](CCCCN)NC(=O)[C@H](CCCCN)NC(=O)[C@H](CCC(=O)O)NC(=O)[C@H](CC(=O)O)NC(=O)[C@H](CC(C)C)NC(=O)[C@H](Cc1ccc(O)cc1)NC(=O)[C@H](CCCCN)NC(=O)[C@H](CO)NC(=O)[C@H](Cc1ccc(O)cc1)NC(=O)[C@H](CC(=O)O)NC(=O)[C@H](CO)NC(=O)[C@@H](NC(=O)[C@H](Cc1ccccc1)NC(=O)[C@@H](NC(=O)CNC(=O)[C@H](CCC(N)=O)NC(=O)C(C)(C)NC(=O)[C@@H](N)Cc1c[nH]cn1)[C@@H](C)O)[C@@H](C)O)C(C)C)C(=O)N[C@@H](CCC(=O)O)C(=O)NCC(=O)NCC(=O)N1CCC[C@H]1C(=O)N[C@@H](CO)C(=O)N[C@@H](CO)C(=O)NCC(N)=O [Compound 2]	39* % of Vehicle	66* % of Vehicle	lower glucose excursions post an oral glucose challenge at both time points	112.7 mg/dL	87.4 mg/dL	101.1 mg/dL	101.3 mg/dL	97.6 mg/dL	115.0 mg/dL	−43* %	−19* %	−70* %	−33* %	HMW species formation by SEC-HPLC [4]: No observed HMW species formation by SEC-HPLC;; solubility at 1 week [4, 10]: 10000 µg/mL (≈ 2190 µM); visible precipitation or phase separation [4]: No visible precipitation or phase separation observed after 1 week
